This is an account of results in publication PMC8469897, “Transcriptomic Characterization of Odorant Binding Proteins in Cacia cretifera thibetana and Their Association with Different Host Emitted Volatiles” (Insects, 2021).

Assay [1] relates to CcreOBP10. The assay can be described thus: Fluorescence competitive binding assay with 1-NPN probe, CcreOBP10. Details: species or system Cacia cretifera thibetana. The method, then:
(§1) The binding affinities of both CcreOBP6 and CcreOBP10 proteins with 20 odor volatiles were determined. The CcreOBP6 and CcreOBP10 proteins from prokaryotic cells were purified by Ni affinity chromatography. Then, 50 mM Tris-HCL buffer solution (pH = 7.4) was prepared, and N-phenyl-1-naphthylamine (1-NPN) was used as a fluorescent probe. For chromatography, the methanol was used as a solvent for fluorescent probe 1-NPN as well as for 20 odor standard volatile samples dissolved in solvent to make a 1 mM solution. These samples were added to a 96 Micro Well TM microtiter plate (NunclonTM) while the multifunctional microplate reader (VARIOSKAN FLASH) excitation light wavelength was set to 337 nm. The scanning wavelength was between 370 to 550 nm, and both excitation and emission slits were set to 5 nm. To determine the CcreOBP6 and CcreOBP10 protein binding constant with the fluorescent probe 1-NPN, a solution was prepared with CcreOBP6 and CcreOBP10 proteins in Tris-HCL (pH = 7.4) buffer with a 2 μM final concentration. The successive concentrations of 2, 4, 6, 8, 12, 16, and 20 μM of 1-NPN were added, and the fluorescence intensity was recorded at the maximum emission wavelength (Em = 410 nm) for each time, and the experiment was repeated three times. The formula for the protein and odor standard dissociation constant was calculated by: Ki = [IC 50]/(1 + [1-NPN]/K 1-NPN) where IC 50 denotes the odor standard concentrations as the fluorescence intensity value was decreased by half, [1-NPN] is the unbound 1-NPN prob concentration, and K 1-NPN is the protein and 1-NPN probe binding constant.

Assay [2] concerns CcreOBP6. Briefly: Fluorescence competitive binding assay with 1-NPN probe, CcreOBP6. Details: species or system Cacia cretifera thibetana. The method, then: as §1
For assay [3], the system named is males and females. Also on record: method as in PMID 23564737. Conditions: olfactometer, lower dose; cited from earlier work.
Setting [4] is: competitive displacement of 1-NPN.
Where [5] appears, read: Ki = [IC50]/(1 + [1-NPN]/K1-NPN).
Where [6] appears, read: odor concentration at which 1-NPN fluorescence intensity is halved.
Setting [7] is: 2 μM protein, Tris-HCl pH 7.4, Em 410 nm, read-out: dissociation constant with fluorescent probe 1-NPN.

As to `CCCCCC=O` [n-hexanal], in assay [1] (setting [4]), the “binding with CcreOBP10” value was “showed binding”. In assay [2] (setting [4]), the “binding with CcreOBP6” value is recorded as “did not show any binding”.
The matching figures for phytol: “showed binding” and “did not show any binding”.
Take `C=C1CC[C@H]2O[C@]2(C)CC[C@@H]2[C@@H]1CC2(C)C` [caryophyllene oxide]: in assay [2] (setting [4]), the “binding with CcreOBP6” value is on record as “did not show any binding”.
Same read-out and setting: the same measure for `C1=CCCCC=CCCC1` [1,6-cyclodecadiene]: “did not show any binding”.
As to `CC(C)COC(=O)c1ccccc1C(=O)OCC(C)C` [di-isobutyl phthalate], in assay [1] (setting [4]), the “drop in the relative fluorescence value” worked out at 6.4%.
In the case of `CC12CCC(CC1)C(C)(C)O2` [eucalyptol], the relative fluorescence value in assay [2] (setting [4]) was 10.84%.
What is called Ki is the dissociation constant of the complex between target and ligand, obtained from inhibition or displacement. As a reminder, the IC50 is the midpoint of a concentration-inhibition curve. Read a high IC50 as weaker potency. `C=CC(=C)CCC=C(C)C` [Myrcene]: the Ki in assay [1] (setting [5]) was found to be 13.8 µM. In assay [1] (setting [4]), the relative fluorescence value result is “below 50%”. Besides, the IC50 in assay [1] (setting [6]) was determined as 17.9 µM.
For `c1ccc(Nc2cccc3ccccc23)cc1` [1-NPN, N-phenyl-1-naphthylamine, reference compound], the Kd turned out to be 6.18 µM in assay [1] (setting [7]) and 7.09 µM in assay [2] (setting [7]).
Consider `CCC/C=C/C=O` [trans-2-hexenal], for which, in assay [1] (setting [4]), the “binding with CcreOBP10” value is “strong binding affinities” and the relative fluorescence value entry is reported as “below 50%”. Besides, the Ki in assay [2] (setting [5]) was 12.9 µM. The “binding with CcreOBP6” value in assay [2] (setting [4]) is “strong binding affinities”. The IC50 in assay [2] (setting [6]) is 16.2 µM. Besides, in assay [3], the repellent activity result was “good repellent activity”.
Turning to `C=C1CC/C=C(\C)CC[C@@H]2[C@@H]1CC2(C)C` [1-caryophyllene], in assay [1] (setting [4]), the relative fluorescence value result is on record as “below 50%”.
